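1) Cells in 96-well plates. 2) Compound, 48 h, 5 concentrations. 3) Linear interpolation between surrounding doses. 4) Unreached endpoint = highest concentration. TGI is the concentration that stops growth completely.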
Tests used:
Assay in all cases: NCI anticancer screen, dose series, 48 h
T-47D breast = tested on: T-47D breast
A498 renal = tested on: A498 renal
ACHN renal = tested on: ACHN renal
RPMI-8226 leukemia = tested on: RPMI-8226 leukemia
SK-MEL-5 melanoma = tested on: SK-MEL-5 melanoma
CAKI-1 renal = tested on: CAKI-1 renal
UO-31 renal = tested on: UO-31 renal
RXF 393 renal = tested on: RXF 393 renal
M14 melanoma = tested on: M14 melanoma
SF-268 CNS = tested on: SF-268 CNS
K-562 leukemia = tested on: K-562 leukemia
NCI/ADR-RES ovarian = tested on: NCI/ADR-RES ovarian
SNB-75 CNS = tested on: SNB-75 CNS
U251 CNS = tested on: U251 CNS
TK-10 renal = tested on: TK-10 renal
NCI-H460 lung = tested on: NCI-H460 lung
OVCAR-5 ovarian = tested on: OVCAR-5 ovarian
MDA-MB-231 breast = tested on: MDA-MB-231 breast
SK-MEL-2 melanoma = tested on: SK-MEL-2 melanoma
OVCAR-3 ovarian = tested on: OVCAR-3 ovarian
DU-145 prostate = tested on: DU-145 prostate
UACC-257 melanoma = tested on: UACC-257 melanoma
EKVX NSCLC = tested on: EKVX NSCLC
HL-60(TB) leukemia = tested on: HL-60(TB) leukemia
MOLT-4 leukemia = tested on: MOLT-4 leukemia
IGROV1 ovarian = tested on: IGROV1 ovarian
BT-549 breast = tested on: BT-549 breast
HOP-92 NSCLC = tested on: HOP-92 NSCLC
COLO 205 colon = tested on: COLO 205 colon
786-0 renal = tested on: 786-0 renal
HOP-62 NSCLC = tested on: HOP-62 NSCLC
CCRF-CEM leukemia = tested on: CCRF-CEM leukemia
LOX IMVI melanoma = tested on: LOX IMVI melanoma
OVCAR-4 ovarian = tested on: OVCAR-4 ovarian
OVCAR-8 ovarian = tested on: OVCAR-8 ovarian
SK-MEL-28 melanoma = tested on: SK-MEL-28 melanoma
PC-3 prostate = tested on: PC-3 prostate
SW-620 colon = tested on: SW-620 colon
SF-295 CNS = tested on: SF-295 CNS
NCI-H226 lung = tested on: NCI-H226 lung
KM12 colon = tested on: KM12 colon
HT29 colon = tested on: HT29 colon
A549 NSCLC = tested on: A549 NSCLC
HCT-15 colon = tested on: HCT-15 colon
SK-OV-3 ovarian = tested on: SK-OV-3 ovarian
UACC-62 melanoma = tested on: UACC-62 melanoma
SN12C renal = tested on: SN12C renal
HCC-2998 colon = tested on: HCC-2998 colon
NCI-H23 lung = tested on: NCI-H23 lung
MDA-N = tested on: MDA-N
SNB-19 CNS = tested on: SNB-19 CNS
HCT-116 colon = tested on: HCT-116 colon
MDA-MB-435 = tested on: MDA-MB-435
SR leukemia = tested on: SR leukemia
HS 578T breast = tested on: HS 578T breast
MCF7 breast = tested on: MCF7 breast
MALME-3M melanoma = tested on: MALME-3M melanoma
SF-539 CNS = tested on: SF-539 CNS

Which TGI (T-47D breast) does the source give for Cc1cc2c(c(C=Nc3ccccc3O)c1)OC1(C=C2)Oc2ccccc2C(=O)N1C (stereo not given) here?
The TGI was 8.45 µM.

What about the TGI (A498 renal) of the same molecule?
Its TGI is 56.1 µM.

And the TGI (ACHN renal)?
Its TGI is 40.3 µM.

What about the TGI (RPMI-8226 leukemia) of the same molecule?
The TGI was 84.3 µM.

And the TGI (SK-MEL-5 melanoma)?
Its TGI is 36.4 µM.

And the TGI (CAKI-1 renal)?
The TGI was 42.2 µM.

And the TGI (UO-31 renal)?
Its TGI is 31.4 µM.

What about the TGI (RXF 393 renal) of the same molecule?
Its TGI is 37.2 µM.

And the TGI (M14 melanoma)?
The TGI was 57.5 µM.

What about the TGI (SF-268 CNS) of the same molecule?
Its TGI is 36.3 µM.

And the TGI (K-562 leukemia)?
Its TGI is 62.2 µM.

What about the TGI (NCI/ADR-RES ovarian) of the same molecule?
The TGI was 37.5 µM.

What about the TGI (SNB-75 CNS) of the same molecule?
Its TGI is 52.3 µM.

What about the TGI (U251 CNS) of the same molecule?
Its TGI is 41 µM.

And the TGI (TK-10 renal)?
Its TGI is 48 µM.

What about the TGI (NCI-H460 lung) of the same molecule?
The TGI was 30.6 µM.

What about the TGI (OVCAR-5 ovarian) of the same molecule?
The TGI was 30 µM.

And the TGI (MDA-MB-231 breast)?
Its TGI is 37.5 µM.

What about the TGI (SK-MEL-2 melanoma) of the same molecule?
Its TGI is 50 µM.

And the TGI (OVCAR-3 ovarian)?
The TGI was 29.4 µM.

And the TGI (DU-145 prostate)?
The TGI was 39.9 µM.

And the TGI (UACC-257 melanoma)?
Its TGI is 30.8 µM.

What about the TGI (EKVX NSCLC) of the same molecule?
The TGI was 40.5 µM.

And the TGI (HL-60(TB) leukemia)?
The TGI was greater than 100 µM.

And the TGI (MOLT-4 leukemia)?
The TGI was 51 µM.

What about the TGI (IGROV1 ovarian) of the same molecule?
The TGI was 58.5 µM.

What about the TGI (BT-549 breast) of the same molecule?
The TGI was 47.8 µM.

What about the TGI (HOP-92 NSCLC) of the same molecule?
Its TGI is 32.2 µM.

What about the TGI (COLO 205 colon) of the same molecule?
Its TGI is 54.5 µM.

What about the TGI (786-0 renal) of the same molecule?
Its TGI is 37.5 µM.

What about the TGI (HOP-62 NSCLC) of the same molecule?
The TGI was 66.3 µM.

And the TGI (CCRF-CEM leukemia)?
Its TGI is 46.3 µM.

And the TGI (LOX IMVI melanoma)?
The TGI was 25.4 µM.

What about the TGI (OVCAR-4 ovarian) of the same molecule?
The TGI was 60 µM.

And the TGI (OVCAR-8 ovarian)?
The TGI was 43.6 µM.

And the TGI (SK-MEL-28 melanoma)?
Its TGI is 47.5 µM.

What about the TGI (PC-3 prostate) of the same molecule?
The TGI was 48.7 µM.

What about the TGI (SW-620 colon) of the same molecule?
The TGI was 86.7 µM.

And the TGI (SF-295 CNS)?
The TGI was 68.2 µM.

What about the TGI (NCI-H226 lung) of the same molecule?
Its TGI is 36.4 µM.

And the TGI (KM12 colon)?
Its TGI is 41.3 µM.

What about the TGI (HT29 colon) of the same molecule?
Its TGI is 30.2 µM.

And the TGI (A549 NSCLC)?
Its TGI is 70.8 µM.

What about the TGI (HCT-15 colon) of the same molecule?
The TGI was 30.9 µM.

And the TGI (SK-OV-3 ovarian)?
Its TGI is 58.4 µM.

What about the TGI (UACC-62 melanoma) of the same molecule?
Its TGI is 36.2 µM.

What about the TGI (SN12C renal) of the same molecule?
Its TGI is 46.5 µM.

What about the TGI (HCC-2998 colon) of the same molecule?
The TGI was 29.2 µM.

And the TGI (NCI-H23 lung)?
Its TGI is 34.6 µM.

What about the TGI (MDA-N) of the same molecule?
Its TGI is 77.3 µM.

And the TGI (SNB-19 CNS)?
The TGI was greater than 100 µM.

And the TGI (HCT-116 colon)?
Its TGI is 27.5 µM.

And the TGI (MDA-MB-435)?
The TGI was 82 µM.

And the TGI (SR leukemia)?
The TGI was 48 µM.

What about the TGI (HS 578T breast) of the same molecule?
Its TGI is 55.3 µM.

Clc1ccccc1/C=c1\nc(-c2ccccc2)n2c1nc1ccccc12 was tested. Which TGI (T-47D breast) did it give?
The TGI was greater than 100 µM.

What about the TGI (A498 renal) of the same molecule?
Its TGI is greater than 100 µM.

What about the TGI (ACHN renal) of the same molecule?
Its TGI is greater than 100 µM.

And the TGI (RPMI-8226 leukemia)?
The TGI was greater than 100 µM.

And the TGI (SK-MEL-5 melanoma)?
Its TGI is greater than 100 µM.

What about the TGI (CAKI-1 renal) of the same molecule?
Its TGI is greater than 100 µM.

What about the TGI (UO-31 renal) of the same molecule?
The TGI was greater than 100 µM.

What about the TGI (RXF 393 renal) of the same molecule?
The TGI was 41.9 µM.

What about the TGI (M14 melanoma) of the same molecule?
The TGI was greater than 100 µM.

And the TGI (SF-268 CNS)?
The TGI was 54.6 µM.

And the TGI (K-562 leukemia)?
The TGI was greater than 100 µM.

And the TGI (NCI/ADR-RES ovarian)?
Its TGI is greater than 100 µM.

And the TGI (MCF7 breast)?
Its TGI is greater than 100 µM.

What about the TGI (U251 CNS) of the same molecule?
The TGI was 61.3 µM.

What about the TGI (TK-10 renal) of the same molecule?
Its TGI is greater than 100 µM.

And the TGI (NCI-H460 lung)?
The TGI was greater than 100 µM.

And the TGI (OVCAR-5 ovarian)?
Its TGI is greater than 100 µM.

What about the TGI (MDA-MB-231 breast) of the same molecule?
The TGI was 73.1 µM.

What about the TGI (SK-MEL-2 melanoma) of the same molecule?
The TGI was greater than 100 µM.

And the TGI (OVCAR-3 ovarian)?
The TGI was greater than 100 µM.

And the TGI (DU-145 prostate)?
The TGI was greater than 100 µM.

And the TGI (UACC-257 melanoma)?
Its TGI is greater than 100 µM.

What about the TGI (EKVX NSCLC) of the same molecule?
The TGI was 62.9 µM.

And the TGI (HL-60(TB) leukemia)?
Its TGI is greater than 100 µM.

And the TGI (MOLT-4 leukemia)?
The TGI was greater than 100 µM.

And the TGI (IGROV1 ovarian)?
Its TGI is greater than 100 µM.

And the TGI (BT-549 breast)?
The TGI was 50 µM.

And the TGI (HOP-92 NSCLC)?
Its TGI is greater than 100 µM.

What about the TGI (COLO 205 colon) of the same molecule?
The TGI was greater than 100 µM.

And the TGI (786-0 renal)?
Its TGI is greater than 100 µM.

And the TGI (HOP-62 NSCLC)?
Its TGI is 50.3 µM.

What about the TGI (CCRF-CEM leukemia) of the same molecule?
The TGI was greater than 100 µM.

What about the TGI (LOX IMVI melanoma) of the same molecule?
The TGI was greater than 100 µM.

And the TGI (OVCAR-4 ovarian)?
The TGI was greater than 100 µM.

What about the TGI (OVCAR-8 ovarian) of the same molecule?
The TGI was greater than 100 µM.

What about the TGI (SK-MEL-28 melanoma) of the same molecule?
Its TGI is greater than 100 µM.

And the TGI (PC-3 prostate)?
The TGI was 27.9 µM.

What about the TGI (SW-620 colon) of the same molecule?
The TGI was greater than 100 µM.

What about the TGI (MALME-3M melanoma) of the same molecule?
The TGI was greater than 100 µM.

What about the TGI (SF-295 CNS) of the same molecule?
Its TGI is 31.2 µM.

What about the TGI (NCI-H226 lung) of the same molecule?
Its TGI is greater than 100 µM.

What about the TGI (KM12 colon) of the same molecule?
Its TGI is greater than 100 µM.

What about the TGI (HT29 colon) of the same molecule?
Its TGI is greater than 100 µM.

What about the TGI (A549 NSCLC) of the same molecule?
Its TGI is greater than 100 µM.

And the TGI (HCT-15 colon)?
Its TGI is greater than 100 µM.

And the TGI (SK-OV-3 ovarian)?
The TGI was 71.7 µM.

And the TGI (UACC-62 melanoma)?
The TGI was greater than 100 µM.

What about the TGI (SN12C renal) of the same molecule?
The TGI was greater than 100 µM.

And the TGI (NCI-H23 lung)?
Its TGI is 47.8 µM.

What about the TGI (MDA-N) of the same molecule?
The TGI was greater than 100 µM.

What about the TGI (SF-539 CNS) of the same molecule?
The TGI was 41.9 µM.

And the TGI (SNB-19 CNS)?
The TGI was greater than 100 µM.

What about the TGI (HCT-116 colon) of the same molecule?
The TGI was greater than 100 µM.

And the TGI (MDA-MB-435)?
The TGI was greater than 100 µM.

And the TGI (HS 578T breast)?
Its TGI is greater than 100 µM.
